One molecule from publication PMC5218480 (PLoS ONE, 2017) can be followed below.

This experiment deals with MV-4-11 cells. Description: Gene expression microarray analysis (Affymetrix PrimeView) and GSEA. Type of experiment: cell-based, human. Set-up: RFU PODN (11730768_x_at) / Fold change /veh PODN (11730768_x_at) / RFU LINC00158 (11744669_a_at) / Fold change /veh LINC00158 (11744669_a_at) / RFU DUSP10 (11751237_a_at) / Fold change /veh DUSP10 (11751237_a_at) / RFU ID3 (11757404_x_at) / Fold change /veh ID3 (11757404_x_at) / RFU PLEKHG5 (11737974_s_at) / Fold change /veh PLEKHG5 (11737974_s_at) / RFU LRRC4B (11730491_at) / Fold change /veh LRRC4B (11730491_at) / RFU GIMAP4 (11747438_a_at) / Fold change /veh GIMAP4 (11747438_a_at) / RFU KRT8 (11758183_x_at) / Fold change /veh KRT8 (11758183_x_at) / RFU CNN1 (11734310_a_at) / Fold change /veh CNN1 (11734310_a_at) / RFU VPS37D (11726825_at) / Fold change /veh VPS37D (11726825_at) / RFU C10orf10 (11716522_x_at) / Fold change /veh C10orf10 (11716522_x_at) / RFU KIR2DL2 /// KIR2DL4 /// KIR2DL5A /// KIR2DL5B /// KIR2DS1 /// KIR2DS2 /// KIR2DS3 /// KIR2DS4 /// KIR3DL3 /// KIR3DL3 /// KIR3DS1 (11738374_at) / Fold change /veh KIR2DL2 /// KIR2DL4 /// KIR2DL5A /// KIR2DL5B /// KIR2DS1 /// KIR2DS2 /// KIR2DS3 /// KIR2DS4 /// KIR3DL3 /// KIR3DL3 /// KIR3DS1 (11738374_at) / RFU C1QL1 (11718748_at) / Fold change /veh C1QL1 (11718748_at) / RFU TMPRSS4 (11747572_a_at) / Fold change /veh TMPRSS4 (11747572_a_at) / RFU HAMP (11756126_x_at) / Fold change /veh HAMP (11756126_x_at) / RFU RNFT2 (11725882_a_at) / Fold change /veh RNFT2 (11725882_a_at) / RFU NR4A2 (11747474_a_at) / Fold change /veh NR4A2 (11747474_a_at) / RFU ABCC12 (11746883_a_at) / Fold change /veh ABCC12 (11746883_a_at) / RFU TMEM136 (11760407_x_at) / Fold change /veh TMEM136 (11760407_x_at) / RFU CLDN22 /// WWC2 (11732394_at) / Fold change /veh CLDN22 /// WWC2 (11732394_at) / RFU HLA-DPB1 (11760878_x_at) / Fold change /veh HLA-DPB1 (11760878_x_at) / RFU SPINT1 (11716480_a_at) / Fold change /veh SPINT1 (11716480_a_at) / RFU GAP43 (11754022_s_at) / Fold change /veh GAP43 (11754022_s_at) / RFU A4GNT (11735810_at) / Fold change /veh A4GNT (11735810_at) / RFU PRB3 (11715151_x_at) / Fold change /veh PRB3 (11715151_x_at) / RFU TUBB4B (11761932_at) / Fold change /veh TUBB4B (11761932_at) / RFU CAPN14 (11732068_a_at) / Fold change /veh CAPN14 (11732068_a_at) / RFU TMCC2 (11721928_a_at) / Fold change /veh TMCC2 (11721928_a_at) / RFU IRGQ (11745062_a_at) / Fold change /veh IRGQ (11745062_a_at) / RFU FAM174B (11720279_a_at) / Fold change /veh FAM174B (11720279_a_at) / RFU TMPRSS4 (11748680_a_at) / Fold change /veh TMPRSS4 (11748680_a_at) / RFU FAM212B (11763350_a_at) / Fold change /veh FAM212B (11763350_a_at) / RFU PLEKHG5 (11743358_a_at) / Fold change /veh PLEKHG5 (11743358_a_at) / RFU ZSCAN30 (11745921_a_at) / Fold change /veh ZSCAN30 (11745921_a_at) / RFU CMKLR1 (11741424_a_at) / Fold change /veh CMKLR1 (11741424_a_at) / RFU LOC101060620 /// MAPK8IP1 (11723275_at) / Fold change /veh LOC101060620 /// MAPK8IP1 (11723275_at) / RFU SPTSSB (11747773_x_at) / Fold change /veh SPTSSB (11747773_x_at) / RFU PRSS12 (11739890_at) / Fold change /veh PRSS12 (11739890_at) / RFU BIN1 (11741810_x_at) / Fold change /veh BIN1 (11741810_x_at) / RFU WNT11 (11732464_a_at) / Fold change /veh WNT11 (11732464_a_at) / RFU C10orf10 (11716521_a_at) / Fold change /veh C10orf10 (11716521_a_at) / RFU C5orf56 (11738089_at) / Fold change /veh C5orf56 (11738089_at) / RFU CYB561 (11721691_x_at) / Fold change /veh CYB561 (11721691_x_at) / RFU ANKRD19P (11752326_a_at) / Fold change /veh ANKRD19P (11752326_a_at) / RFU OR2T12 /// OR2T33 /// OR2T8 (11738714_s_at) / Fold change /veh OR2T12 /// OR2T33 /// OR2T8 (11738714_s_at) / RFU VCAN (11748164_a_at) / Fold change /veh VCAN (11748164_a_at) / RFU JSRP1 (11732532_at) / Fold change /veh JSRP1 (11732532_at) / RFU KRTAP10-11 (11738290_x_at) / Fold change /veh KRTAP10-11 (11738290_x_at) / RFU MYO3A (11730013_a_at) / Fold change /veh MYO3A (11730013_a_at) / RFU EBF3 (11725865_a_at) / Fold change /veh EBF3 (11725865_a_at) / RFU CAMK2N1 (11719241_x_at) / Fold change /veh CAMK2N1 (11719241_x_at) / RFU C5orf56 (11738088_a_at) / Fold change /veh C5orf56 (11738088_a_at) / RFU OLFML3 (11715873_a_at) / Fold change /veh OLFML3 (11715873_a_at) / RFU LOC100653217 /// NTM (11731650_a_at) / Fold change /veh LOC100653217 /// NTM (11731650_a_at) / RFU MAPK11 (11762145_a_at) / Fold change /veh MAPK11 (11762145_a_at) / RFU FIZ1 (11724087_x_at) / Fold change /veh FIZ1 (11724087_x_at) / RFU OASL (11726364_x_at) / Fold change /veh OASL (11726364_x_at) / RFU SOX15 (11748057_x_at) / Fold change /veh SOX15 (11748057_x_at) / RFU CD79A (11719716_a_at) / Fold change /veh CD79A (11719716_a_at) / RFU HIST1H1D (11736915_at) / Fold change /veh HIST1H1D (11736915_at) / RFU CASKIN2 (11723855_a_at) / Fold change /veh CASKIN2 (11723855_a_at) / RFU LOC730098 (11760151_x_at) / Fold change /veh LOC730098 (11760151_x_at) / RFU OR4N2 (11742367_at) / Fold change /veh OR4N2 (11742367_at) / RFU PRRT2 (11749266_a_at) / Fold change /veh PRRT2 (11749266_a_at) / RFU SNX32 (11753110_a_at) / Fold change /veh SNX32 (11753110_a_at) / RFU CDHR5 (11726645_a_at) / Fold change /veh CDHR5 (11726645_a_at) / RFU RCAN1 (11760418_a_at) / Fold change /veh RCAN1 (11760418_a_at) / RFU FAM167A (11723789_a_at) / Fold change /veh FAM167A (11723789_a_at) / RFU FAM26E (11764081_at) / Fold change /veh FAM26E (11764081_at) / RFU ISYNA1 (11749810_s_at) / Fold change /veh ISYNA1 (11749810_s_at) / RFU ACY1 (11761880_at) / Fold change /veh ACY1 (11761880_at) / RFU 11764098_at / Fold change /veh 11764098_at / RFU SAMD14 (11745864_x_at) / Fold change /veh SAMD14 (11745864_x_at) / RFU NPB (11741838_a_at) / Fold change /veh NPB (11741838_a_at) / RFU TMPRSS6 (11731388_a_at) / Fold change /veh TMPRSS6 (11731388_a_at) / RFU KRTAP10-2 (11738614_at) / Fold change /veh KRTAP10-2 (11738614_at) / RFU ARHGAP8 /// PRR5-ARHGAP8 (11727945_x_at) / Fold change /veh ARHGAP8 /// PRR5-ARHGAP8 (11727945_x_at) / RFU KRTAP5-7 /// NADSYN1 (11734609_at) / Fold change /veh KRTAP5-7 /// NADSYN1 (11734609_at) / RFU RASL12 (11751679_a_at) / Fold change /veh RASL12 (11751679_a_at) / RFU CDKN2B (11736163_a_at) / Fold change /veh CDKN2B (11736163_a_at) / RFU PRF1 (11729649_at) / Fold change /veh PRF1 (11729649_at) / RFU, ZNF638 /// ZNF638-IT1 / Fold change vs veh, ZNF638 /// ZNF638-IT1 / RFU, PANK3 / Fold change vs veh, PANK3 / RFU, SH3YL1 / Fold change vs veh, SH3YL1 / RFU, ZEB2 / Fold change vs veh, ZEB2 / RFU, NRIP1 / Fold change vs veh, NRIP1 / RFU, PTTG1IP / Fold change vs veh, PTTG1IP / RFU, CAPN2 / Fold change vs veh, CAPN2 / RFU, MED14 / Fold change vs veh, MED14 / RFU, SNORA58 / Fold change vs veh, SNORA58 / RFU, C1orf63 / Fold change vs veh, C1orf63 / RFU, LRRFIP1 / Fold change vs veh, LRRFIP1 / RFU, NDUFAF7 / Fold change vs veh, NDUFAF7 / RFU, SLC12A2 / Fold change vs veh, SLC12A2 / RFU, IBTK / Fold change vs veh, IBTK / RFU, ESF1 / Fold change vs veh, ESF1 / Fold change vs veh, TMEM50B / RFU, TAOK1 / Fold change vs veh, TAOK1 / RFU, ACBD3 / Fold change vs veh, ACBD3 / RFU, TMA16 / Fold change vs veh, TMA16 / RFU, RWDD3 / Fold change vs veh, RWDD3 / RFU, BCAT1 / Fold change vs veh, BCAT1 / RFU, EDEM3 / Fold change vs veh, EDEM3 / RFU, TMEM33 / Fold change vs veh, TMEM33 / RFU, WDR75 / Fold change vs veh, WDR75 / RFU, AHCTF1 / Fold change vs veh, AHCTF1 / RFU, TFRC / Fold change vs veh, TFRC / RFU, ZDHHC17 / Fold change vs veh, ZDHHC17 / RFU, NOM1 / Fold change vs veh, NOM1 / RFU, ARL8B / Fold change vs veh, ARL8B / RFU, ZBTB11 / Fold change vs veh, ZBTB11 / RFU, TAMM41 / Fold change vs veh, TAMM41 / RFU, KIAA1704 /// LOC100996395 / Fold change vs veh, KIAA1704 /// LOC100996395 / RFU, ING1 / Fold change vs veh, ING1 / RFU, TRMT61B / Fold change vs veh, TRMT61B / RFU, FUBP3 / Fold change vs veh, FUBP3 / RFU, TP53 / Fold change vs veh, TP53 / RFU, TNKS2 / Fold change vs veh, TNKS2 / RFU, ZFP14 / Fold change vs veh, ZFP14 / RFU, ACTR2 / Fold change vs veh, ACTR2 / RFU, PPP3R1 / Fold change vs veh, PPP3R1 / RFU, PIK3R1 / Fold change vs veh, PIK3R1 / RFU, HNRNPA1 / Fold change vs veh, HNRNPA1 / RFU, RNF170 / Fold change vs veh, RNF170 / RFU, ZNF28 / Fold change vs veh, ZNF28 / RFU, RNGTT / Fold change vs veh, RNGTT / RFU, OGT / Fold change vs veh, OGT / RFU, BRD1 / Fold change vs veh, BRD1 / RFU, MARS / Fold change vs veh, MARS / RFU, ZNF655 / Fold change vs veh, ZNF655 / RFU, FAHD1 / Fold change vs veh, FAHD1 / RFU, BDP1 / Fold change vs veh, BDP1 / RFU, LRRCC1 / Fold change vs veh, LRRCC1 / RFU, ARID1A / Fold change vs veh, ARID1A / RFU, ZNF146 / Fold change vs veh, ZNF146 / RFU, ZNF330 / Fold change vs veh, ZNF330 / RFU, GPN3 / Fold change vs veh, GPN3 / RFU, C9orf123 / Fold change vs veh, C9orf123 / RFU, N4BP2L2 / Fold change vs veh, N4BP2L2 / RFU, ARFIP1 / Fold change vs veh, ARFIP1 / RFU, FAM179B / Fold change vs veh, FAM179B / RFU, BCL10 / Fold change vs veh, BCL10 / RFU, UHRF1BP1L / Fold change vs veh, UHRF1BP1L / RFU, BET1 / Fold change vs veh, BET1 / RFU, CNOT2 / Fold change vs veh, CNOT2 / RFU, ZNF268 / Fold change vs veh, ZNF268 / Fold change vs veh, ZNF507 / RFU, DGCR2 / Fold change vs veh, DGCR2 / RFU, WDSUB1 / Fold change vs veh, WDSUB1 / Fold change vs veh, HSP90B1 /// MIR3652 / RFU, ADSS / Fold change vs veh, ADSS / RFU, GK / Fold change vs veh, GK / RFU, ZNF148 / Fold change vs veh, ZNF148 / RFU, TAF9 / Fold change vs veh, TAF9 / RFU, SLC1A5 / Fold change vs veh, SLC1A5 / RFU, SLMO2 / Fold change vs veh, SLMO2 / RFU, ABCC4 / Fold change vs veh, ABCC4 / RFU, LOC101060439 /// RAP1B / Fold change vs veh, LOC101060439 /// RAP1B / RFU, RFX7 / Fold change vs veh, RFX7 / RFU, GTPBP10 / Fold change vs veh, GTPBP10 / RFU, CNEP1R1 / Fold change vs veh, CNEP1R1 / RFU, BIVM-ERCC5 /// ERCC5 / Fold change vs veh, BIVM-ERCC5 /// ERCC5 / RFU, ILF3 / Fold change vs veh, ILF3 / RFU 11762660_at / Fold change /veh 11762660_at / RFU VCAN (11757783_s_at) / Fold change /veh VCAN (11757783_s_at) / RFU DDX43 (11728927_at) / Fold change /veh DDX43 (11728927_at) / RFU KRT8 (11758188_x_at) / Fold change /veh KRT8 (11758188_x_at) / RFU NKD1 (11759106_at) / Fold change /veh NKD1 (11759106_at) / RFU SRD5A1 (11742802_a_at) / Fold change /veh SRD5A1 (11742802_a_at) / RFU TPSAB1 /// TPSB2 (11721975_s_at) / Fold change /veh TPSAB1 /// TPSB2 (11721975_s_at) / RFU GSTM3 (11746129_a_at) / Fold change /veh GSTM3 (11746129_a_at) / RFU IL23R (11737362_x_at) / Fold change /veh IL23R (11737362_x_at) / RFU TMEM51 (11727254_a_at) / Fold change /veh TMEM51 (11727254_a_at) / RFU PIWIL2 (11732686_x_at) / Fold change /veh PIWIL2 (11732686_x_at) / RFU ORM1 (11744905_x_at) / Fold change /veh ORM1 (11744905_x_at) / RFU CCDC152 (11743942_at) / Fold change /veh CCDC152 (11743942_at) / RFU ECM1 (11717891_a_at) / Fold change /veh ECM1 (11717891_a_at) / RFU IL23R (11748794_a_at) / Fold change /veh IL23R (11748794_a_at) / RFU TNFAIP8L3 (11732012_x_at) / Fold change /veh TNFAIP8L3 (11732012_x_at) / RFU MBOAT4 (11741988_at) / Fold change /veh MBOAT4 (11741988_at) / RFU 11764193_at / Fold change /veh 11764193_at / RFU TMEM53 (11763286_at) / Fold change /veh TMEM53 (11763286_at) / RFU MAGEB2 (11727129_at) / Fold change /veh MAGEB2 (11727129_at) / RFU TMEM200A (11744735_a_at) / Fold change /veh TMEM200A (11744735_a_at) / RFU CCDC152 (11751479_a_at) / Fold change /veh CCDC152 (11751479_a_at) / RFU FAM211A (11726209_a_at) / Fold change /veh FAM211A (11726209_a_at) / RFU RGS16 (11746705_a_at) / Fold change /veh RGS16 (11746705_a_at) / RFU VCAN (11755009_s_at) / Fold change /veh VCAN (11755009_s_at) / RFU RHOB (11743442_s_at) / Fold change /veh RHOB (11743442_s_at) / RFU RGS16 (11720943_a_at) / Fold change /veh RGS16 (11720943_a_at) / RFU RGS16 (11720944_at) / Fold change /veh RGS16 (11720944_at) / RFU, VPS4B / Fold change vs veh, VPS4B / RFU, CREB1 / Fold change vs veh, CREB1 / RFU, DNAJC13 / Fold change vs veh, DNAJC13 / RFU, GNAQ / Fold change vs veh, GNAQ / RFU, CDK5R1 / Fold change vs veh, CDK5R1 / RFU, ZRANB3 / Fold change vs veh, ZRANB3 / RFU, CUL4A / Fold change vs veh, CUL4A / RFU, CCNY / Fold change vs veh, CCNY / RFU, UFL1 / Fold change vs veh, UFL1 / RFU, COG3 / Fold change vs veh, COG3 / RFU, DIAPH2 / Fold change vs veh, DIAPH2 / RFU, SKA2 / Fold change vs veh, SKA2 / RFU, AFF3 / Fold change vs veh, AFF3 / RFU, LMF1 / Fold change vs veh, LMF1 / RFU, IPO11 / Fold change vs veh, IPO11 / RFU, DFFB / Fold change vs veh, DFFB / RFU, FOXP1 / Fold change vs veh, FOXP1 / RFU, CARD8 / Fold change vs veh, CARD8 / RFU, STRN3 / Fold change vs veh, STRN3 / RFU, ADK / Fold change vs veh, ADK / RFU, RASSF2 / Fold change vs veh, RASSF2 / RFU, WIPF1 / Fold change vs veh, WIPF1 / RFU, LARP1B / Fold change vs veh, LARP1B / RFU, RASA1 / Fold change vs veh, RASA1 / RFU, RB1 / Fold change vs veh, RB1 / RFU, PPFIA1 / Fold change vs veh, PPFIA1 / RFU, MAT2A / Fold change vs veh, MAT2A / RFU, CCT5 / Fold change vs veh, CCT5 / RFU, WDR92 / Fold change vs veh, WDR92 / RFU, CUX1 / Fold change vs veh, CUX1 / RFU, TTC7A / Fold change vs veh, TTC7A / RFU, TMEM135 / Fold change vs veh, TMEM135 / RFU, DEPTOR / Fold change vs veh, DEPTOR / RFU, CPM / Fold change vs veh, CPM / RFU, DNAJB6 / Fold change vs veh, DNAJB6 / RFU, CACNA2D3 / Fold change vs veh, CACNA2D3 / RFU, DTX4 / Fold change vs veh, DTX4 / RFU, TFCP2 / Fold change vs veh, TFCP2 / RFU, GMCL1 /// GMCL1P1 / Fold change vs veh, GMCL1 /// GMCL1P1 / RFU, AEBP2 / Fold change vs veh, AEBP2 / RFU, SNHG1 /// SNORD22 /// SNORD25 /// SNORD26 /// SNORD27 /// SNORD28 /// SNORD29 /// SNORD31 / Fold change vs veh, SNHG1 /// SNORD22 /// SNORD25 /// SNORD26 /// SNORD27 /// SNORD28 /// SNORD29 /// SNORD31 / Fold change (Aza/veh), C12orf56 (ProbeSet 11735607_a_at) / Fold change (ACY-1035/veh), C12orf56 (ProbeSet 11735607_a_at) / Fold change (Aza/veh), FGFR1OP (ProbeSet 11751329_s_at) / Fold change (ACY-1035/veh), FGFR1OP (ProbeSet 11751329_s_at) / Fold change (Aza/veh), VPS36 (ProbeSet 11739960_a_at) / Fold change (ACY-1035/veh), VPS36 (ProbeSet 11739960_a_at) / RFU SYPL1 (11715823_x_at) / Fold change /veh SYPL1 (11715823_x_at) / RFU IGFBP7 (11715501_s_at) / Fold change /veh IGFBP7 (11715501_s_at) / RFU REEP3 (11722064_at) / Fold change /veh REEP3 (11722064_at) / RFU IGLL1 (11728026_x_at) / Fold change /veh IGLL1 (11728026_x_at): dose or concentration left out as unconfirmed. Particulars: ProbeSet 11734782_x_at; LIST D.

Take `Nc1ncn([C@@H]2O[C@H](CO)[C@@H](O)[C@H]2O)c(=O)n1` [azacitidine]: the “Fold change vs veh, WDR92” value is reported as 0.69.
